We go through two molecules from ChEMBL document CHEMBL4420076, “Amylin and calcitonin receptor agonist” (2017).

SMILES strings stand for the structures. Numbered stars: 1 amine (or outer) side, 2 acyl side, 3 side chain; on linkers, the order of the positions; unused ones are H or OH. Peptide text beside a SMILES is read from it. * marks the point of attachment. C20 diacid = O=C(O)CCCCCCCCCCCCCCCCCCC(=O)*; C18 diacid = O=C(O)CCCCCCCCCCCCCCCCC(=O)*; γGlu = O=C(O)[C@H](CCC(=O)[*:2])N[*:1]

For orientation: EC50 means the concentration at which the effect is half-maximal. By solubility is commonly meant how much of the substance goes into solution per volume. By IC50 is commonly meant the concentration at which inhibition is half-maximal.

Data set [1] deals with Rattus norvegicus. In words: Reduction in food intake in Sprague-Dawley rat at 3 nmol/kg measured 0 to 24 hrs post dose relative to control. The class given is functional. Further details: scale not given: the % may be the effect or the level left.
Data set [2] has as its system Rattus norvegicus. In words: Reduction in food intake in Sprague-Dawley rat at 3 nmol/kg measured 24 to 48 hrs post dose relative to control. The class given is functional. Further details: scale not given: the % may be the effect or the level left.
The target of data set [3] is T1, Amylin receptor AMY3; CALCR/RAMP3 (Homo sapiens, UniProt O60896+P30988).
T1 sequence (P30988 whole entry): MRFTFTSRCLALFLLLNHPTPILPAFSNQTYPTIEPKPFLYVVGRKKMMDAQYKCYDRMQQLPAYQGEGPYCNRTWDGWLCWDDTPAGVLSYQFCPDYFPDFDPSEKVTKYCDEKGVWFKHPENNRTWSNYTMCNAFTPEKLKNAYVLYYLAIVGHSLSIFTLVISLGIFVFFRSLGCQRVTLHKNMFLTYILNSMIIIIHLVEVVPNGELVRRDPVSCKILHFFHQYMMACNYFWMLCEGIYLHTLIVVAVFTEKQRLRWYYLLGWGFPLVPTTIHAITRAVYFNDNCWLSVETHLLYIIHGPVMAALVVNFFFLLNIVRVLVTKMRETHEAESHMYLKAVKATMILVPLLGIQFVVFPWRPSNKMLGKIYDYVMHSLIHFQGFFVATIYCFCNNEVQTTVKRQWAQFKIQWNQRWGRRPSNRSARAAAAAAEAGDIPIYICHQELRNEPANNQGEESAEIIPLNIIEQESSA
T1 sequence (O60896 whole entry): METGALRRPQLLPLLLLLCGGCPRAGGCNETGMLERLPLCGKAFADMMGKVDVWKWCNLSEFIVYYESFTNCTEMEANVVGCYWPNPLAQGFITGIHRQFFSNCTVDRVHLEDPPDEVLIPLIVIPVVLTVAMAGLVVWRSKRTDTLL
The data set can be described thus: Agonist activity at human amylin receptor expressed in BHK570 cells co-expressing RAMP3 assessed as increase in intracellular cAMP concentration incubated for 3 hrs in absence of albumin by CRE luciferase reporter gene assay. The data set is classed as functional, cell-based. On the technique in general: Reporter assays use an easily measured gene product as a stand-in for the process of interest.

In data set [4] the target is T2, Calcitonin receptor (Homo sapiens, UniProt P30988).
T2 sequence (P30988 whole entry): T1 sequence (P30988 whole entry)
In words: Agonist activity at human calcitonin receptor expressed in BHK570 cells assessed as increase in intracellular cAMP concentration incubated for 3 hrs in absence of albumin by CRE luciferase reporter gene assay. The class given is functional, cell-based.

The target of data set [5] is T1, Amylin receptor AMY3; CALCR/RAMP3. In words: Agonist activity at human amylin receptor expressed in BHK570 cells co-expressing RAMP3 assessed as increase in intracellular cAMP concentration incubated for 3 hrs in presence of 10% FBS by CRE luciferase reporter gene assay. The class given is functional, cell-based.
The target in data set [6] is T2, Calcitonin receptor. In words: Agonist activity at human calcitonin receptor expressed in BHK570 cells assessed as increase in intracellular cAMP concentration incubated for 3 hrs in presence of 10% FBS by CRE luciferase reporter gene assay. The data set is classed as functional, cell-based.
The nature of data set [7]: Solubility in 100 mM glycylglycine buffer at pH 3.0 incubated for 18 hrs by UPLC analysis. The data set is classed as physicochemical.
A short description of data set [8]: Solubility in 100 mM glycylglycine buffer at pH 4.0 incubated for 18 hrs by UPLC analysis. The data set is classed as physicochemical.
Data set [9] in a line: Solubility in 100 mM bistrispropane buffer at pH 6.0 incubated for 18 hrs by UPLC analysis. The data set is classed as physicochemical.
Data set [10] in a line: Solubility in 100 mM glycylglycine buffer at pH 5.0 incubated for 18 hrs by UPLC analysis. The data set is classed as physicochemical.
Data set [11] is described as follows: Solubility in 100 mM bistrispropane buffer at pH 6.5 incubated for 18 hrs by UPLC analysis. The data set is classed as physicochemical.
A short description of data set [12]: Solubility in 100 mM bistrispropane buffer at pH 7.0 incubated for 18 hrs by UPLC analysis. The class given is physicochemical.
The nature of data set [13]: Solubility in 100 mM bistrispropane buffer at pH 7.5 incubated for 18 hrs by UPLC analysis. The class given is physicochemical.
Data set [14] is described as follows: Solubility in 100 mM bistrispropane buffer at pH 8.0 incubated for 18 hrs by UPLC analysis. The class given is physicochemical.
Data set [15] deals with T1, Amylin receptor AMY3; CALCR/RAMP3. The data set can be described thus: Displacement of [125I]-labeled rat amylin from human amylin receptor expressed in BHK tkts13 whole cells co-expressing RAMP3 incubated for 60 mins by scintillation proximity assay. The data set is classed as cell-based.

With `CC(C)C[C@H](NC(=O)[C@H](C)NC(=O)[C@H](C)NC(=O)[C@@H](NC(=O)[C@H](CO)NC(=O)[C@H](CC(C)C)NC(=O)[C@H](CCC(=O)O)NC(=O)[C@H](CO)NC(=O)[C@H](C)NC(=O)[C@H](CCC(=O)O)NC(=O)CCCCCCCCCCCCCCCCC(=O)O)[C@@H](C)O)C(=O)NCC(=O)N[C@@H](CCCNC(=N)N)C(=O)N[C@@H](CC(C)C)C(=O)N[C@@H](CO)C(=O)N[C@@H](C)C(=O)N[C@@H](CCC(=O)O)C(=O)N[C@@H](CC(C)C)C(=O)N[C@@H](Cc1cnc[nH]1)C(=O)N[C@@H](CCC(=O)O)C(=O)N[C@@H](CC(C)C)C(=O)N[C@@H](C)C(=O)N[C@H](C(=O)N[C@@H](CC(C)C)C(=O)N1CCC[C@H]1C(=O)N[C@@H](CCCNC(=N)N)C(=O)N[C@H](C(=O)N[C@@H](CCC(=O)O)C(=O)N[C@H](C(=O)NCC(=O)N[C@@H](CO)C(=O)NCC(=O)N[C@@H](CO)C(=O)N1CCC[C@H]1C(N)=O)[C@@H](C)O)[C@@H](C)O)[C@@H](C)O` ({C18 diacid}-EASELSTAALGRLSAELHELATLPRTETGSGSP-NH2), the Activity in the data set on Rattus norvegicus [1] was determined as 71%; with Rattus norvegicus [2] it was 46%. In addition, the EC50 in data set [3] is 0.009 nM; at Calcitonin receptor [4] it was 0.006 nM; in [5], 0.039 nM; at Calcitonin receptor [6] it was 0.019 nM. For the same molecule, the solubility at 18 h in data set [7], in [8], in data set [9], in data set [10], in [11] and in [12] was at least 200 µM in each case. Moreover, the solubility at 18 h in [13] and in data set [14] was at least 200 µM each time. Also, the IC50 in data set [15] was 0.187 nM.
On to `CC(C)C[C@H](NC(=O)CNC(=O)[C@H](CO)NC(=O)[C@H](CC(C)C)NC(=O)[C@H](CCC(=O)O)NC(=O)CC[C@H](NC(=O)CCCCCCCCCCCCCCCCCCC(=O)O)C(=O)O)C(=O)N[C@@H](CO)C(=O)N[C@H](C(=O)N[C@@H](CC(C)C)C(=O)N[C@H](C(=O)N[C@@H](CC(C)C)C(=O)NCC(=O)N[C@@H](CCCNC(=N)N)C(=O)N[C@@H](CC(C)C)C(=O)N[C@@H](CO)C(=O)N[C@@H](CCC(N)=O)C(=O)N[C@@H](CCC(=O)O)C(=O)N[C@@H](CC(C)C)C(=O)N[C@@H](Cc1cnc[nH]1)C(=O)N[C@@H](CCC(=O)O)C(=O)N[C@@H](CC(C)C)C(=O)N[C@@H](CCC(N)=O)C(=O)N[C@H](C(=O)N[C@@H](Cc1ccc(O)cc1)C(=O)N1CCC[C@H]1C(=O)N[C@@H](CCCNC(=N)N)C(=O)N[C@H](C(=O)NCC(=O)N[C@H](C(=O)NCC(=O)N[C@@H](CO)C(=O)NCC(=O)N[C@H](C(=O)N[C@@H](Cc1ccc(O)cc1)C(N)=O)[C@@H](C)O)[C@@H](C)O)[C@@H](C)O)[C@@H](C)O)C(C)C)[C@@H](C)O` ({C20 diacid-γGlu}-ELSGLSTLVLGRLSQELHELQTYPRTGTGSGTY-NH2), for which the Activity in the data set with Rattus norvegicus [1] was 32%; in the data set on Rattus norvegicus [2], 0%. Besides, the values for the EC50 in data set [3] and in data set [5] were 0.025 nM and 0.565 nM, respectively. The solubility at 18 h in data set [7] and in data set [8] was at least 200 µM each time. Moreover, the IC50 in data set [15] is 2.56 nM.
